Laboratory results published in patent US11707451B2, “Pharmaceutical composition for modified release” (ASTELLAS PHARMA INC., priority 2010, dated 2023).

Test: Pharmacokinetics (PK) test of immediate release formulation (capsule formulation) in human
Format: in vivo
Conditions: healthy subjects; immediate release capsules, 0.1 to 340 mg; FIG. 11
Protocol: The immediate release formulations (capsule formulations) containing 0.1 mg, 1 mg, 5 mg, 20 mg, and 80 mg of the compound A were used in combinations as needed so that the dose of compound A became 0.1 mg, 1 mg, 3 mg, 10 mg, 30 mg, 100 mg, 160 mg, 240 mg, and 340 mg.

With `Nc1nc(CC(=O)Nc2ccc(CCNC[C@H](O)c3ccccc3)cc2)cs1` [compound A, (R)-2-(2-aminothiazol-4-yl)-4′-[2-[(2-hydroxy-2-phenylethyl)amino]ethyl]acetic acid anilide] the “relation between maximum plasma concentration (Cmax) and increase in heart rate from the base line” value was “positive correlation”.
